PubChem BioAssay (NCI)
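Protocol summary: plate cells (96-well), add compound at 5 concentrations, incubate 48 h, interpolate endpoints linearly. TGI marks complete inhibition of growth.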

What was measured:
Experiment in all cases: growth of human tumour cells (NCI), 48 h
[1] = system: 786-0 renal
[2] = system: A498 renal
[3] = system: A549 NSCLC
[4] = system: ACHN renal
[5] = system: CAKI-1 renal
[6] = system: CCRF-CEM leukemia
[7] = system: DLD-1 colon
[8] = system: DMS 114 small cell lung
[9] = system: DMS 273 small cell lung
[10] = system: EKVX NSCLC
[11] = system: HCC-2998 colon
[12] = system: HCT-116 colon
[13] = system: HCT-15 colon
[14] = system: HL-60(TB) leukemia
[15] = system: HOP-18 NSCLC
[16] = system: HOP-62 NSCLC
[17] = system: HOP-92 NSCLC
[18] = system: HT29 colon
[19] = system: IGROV1 ovarian
[20] = system: K-562 leukemia
[21] = system: KM12 colon
[22] = system: KM20L2 colon
[23] = system: LOX IMVI melanoma
[24] = system: LXFL 529 NSCLC
[25] = system: M14 melanoma
[26] = system: MALME-3M melanoma
[27] = system: MOLT-4 leukemia
[28] = system: NCI-H226 lung
[29] = system: NCI-H23 lung
[30] = system: NCI-H460 lung
[31] = system: NCI-H522 lung
[32] = system: OVCAR-4 ovarian
[33] = system: OVCAR-5 ovarian
[34] = system: OVCAR-8 ovarian
[35] = system: RPMI-8226 leukemia
[36] = system: RXF 393 renal
[37] = system: SF-268 CNS
[38] = system: SF-295 CNS
[39] = system: SF-539 CNS
[40] = system: SK-MEL-2 melanoma
[41] = system: SK-MEL-28 melanoma
[42] = system: SK-OV-3 ovarian
[43] = system: SN12C renal
[44] = system: SNB-19 CNS
[45] = system: SNB-75 CNS
[46] = system: SNB-78 CNS
[47] = system: SR leukemia
[48] = system: SW-620 colon
[49] = system: TK-10 renal
[50] = system: U251 CNS
[51] = system: UACC-257 melanoma
[52] = system: UACC-62 melanoma
[53] = system: UO-31 renal
[54] = system: XF 498 CNS
[55] = system: COLO 205 colon
[56] = system: M19-MEL melanoma
[57] = system: RXF-631 renal
[58] = system: SK-MEL-5 melanoma
[59] = system: OVCAR-3 ovarian
[60] = system: BT-549 breast
[61] = system: DU-145 prostate
[62] = system: HS 578T breast
[63] = system: MCF7 breast
[64] = system: MDA-MB-231 breast
[65] = system: MDA-MB-435
[66] = system: MDA-N
[67] = system: NCI/ADR-RES ovarian
[68] = system: PC-3 prostate
[69] = system: T-47D breast

Measured: TGI

CC(=O)O/N=C(Cl)/C(Cl)=N/OC(C)=O
not listed: [55] | [56] | [57] | [58] | [59] | [60] | [61] | [62] | [63] | [64] | [65] | [66] | [67] | [68] | [69]
> 100 µM: all other assays above

O=C(O)c1nccnc1C(=O)O
not listed: [2] | [4] | [15] | [16] | [25] | [34] | [46] | [59] | [60] | [61] | [62] | [63] | [64] | [65] | [66] | [67] | [68] | [69]
> 100 µM: all other assays above

Cc1nc(Nc2ccccc2)sc1C(=O)CC(=O)C(=O)NC12CC3CC(CC(C3)C1)C2
89.4 µM: [17]
73 µM: [10]
not listed: [2] | [35] | [47] | [57] | [60] | [61] | [62] | [63] | [64] | [65] | [66] | [67] | [68] | [69]
> 100 µM: all other assays above

CC(=O)NC(CCCCN(Cc1ccccc1)C(=O)N(CCCl)N=O)C(=O)NCc1ccccc1 (stereo not drawn)
60.4 µM: [44]
34.3 µM: [67]
87.5 µM: [15]
> 44.6 µM: [51]
53.8 µM: [31]
67.2 µM: [55]
58.1 µM: [26]
> 96.7 µM: [28]
65.8 µM: [60]
43.2 µM: [34]
> 70.7 µM: [48]
73.9 µM: [49]
> 79 µM: [7]
> 58.1 µM: [23]
62.2 µM: [40]
> 69.5 µM: [22]
97.7 µM: [5]
> 77.8 µM: [43]
> 71.5 µM: [25]
> 87.3 µM: [33]
28.5 µM: [39]
68.6 µM: [17]
40.8 µM: [37]
63.8 µM: [45]
> 82.1 µM: [27]
> 49.8 µM: [54]
24.9 µM: [1]
36.7 µM: [69]
65.4 µM: [14]
36.3 µM: [66]
42.9 µM: [30]
47.6 µM: [47]
47 µM: [16]
47.9 µM: [64]
50.3 µM: [29]
> 51.9 µM: [61]
63.7 µM: [21]
79 µM: [35]
49.5 µM: [3]
51.3 µM: [36]
> 76.3 µM: [42]
60 µM: [19]
> 89.4 µM: [20]
49.7 µM: [62]
> 84.3 µM: [6]
43.4 µM: [38]
41 µM: [4]
> 72.4 µM: [18]
> 62.6 µM: [12]
36.5 µM: [52]
57.2 µM: [53]
97.9 µM: [10]
39.7 µM: [50]
not listed: [57]
> 100 µM: all other assays above
